Where two headings read alike, the source gives them in different places.
What was measured:
HSP90α = HSP90α (Homo sapiens, UniProt P07900); test: Affinity to HSP90α; type: binding
Her-2 (HSP90 client) = Her-2 (HSP90 client) degradation (client depletion); type: cell-based
Protocol: A number of the compounds of the invention were tested for affinity to HSP90α (see Kim et al., J. Biomol. Screen., 2004, 9, 375), Her-2 (HSP90 client) degradation (see Xu et al., J. Biol. Chem., 2001, 276, 3702), and cytotoxicity against SKBr3 and HCC1954, two breast cancer cell lines which over express Her-2.

[1] = Her-2 degradation; read-out: Client Depletion
[2] = read-out: Client Depletion; Her-2 degradation

Row | Structure (SMILES) | IC50 (HSP90α; read-out: HSP90 affinity) | IC50 (Her-2 (HSP90 client); [1]) | IC50 (HSP90α; HSP90 affinity) | IC50 (Her-2 (HSP90 client); [2])
1 | CC(C)(C)OC(=O)N1CCN(C(=O)CON=C2/C=C/CC/C=C/CCOC(=O)c3c(O)cc(O)cc3C2)CC1 [compound 392] | 327 nM | 2870 nM | – | –
2 | C[C@@H]1C/C=C/CC/C=C/C(=O)Cc2c(Cl)c(O)cc(O)c2C(=O)O1 [pochonin D, Pochonin D, reference compound] | 360 nM | 3500 nM | – | –
3 | COC(=O)CON=C1/C=C/CC/C=C/CCOC(=O)c2c(O)cc(O)cc2C1 [compound 385] | – | – | 373 nM | 8160 nM
4 | CC1/C=C/C[C@@H](C)OC(=O)c2c(O)cc(O)c(Cl)c2CC(=NOCC(=O)N2CCCCC2)/C=C/C1 (stereo partly drawn) [compound 369] | – | – | 154 nM | 677 nM
5 | O=C1OCC/C=C/CC/C=C/C(=NOCC(=O)N2CC=CC2)Cc2cc(O)cc(O)c21 [compound 386] | – | – | 128 nM | 669 nM
6 | CC1/C=C/COC(=O)c2c(O)cc(O)c(Cl)c2CC(=NOCC(=O)N2CCCCC2)/C=C/C1 (stereo not drawn) [compound 368] | 599 nM | > 10000 nM | – | –
7 | O=C(CON=C1/C=C/CC/C=C/CCOC(=O)c2c(O)cc(O)cc2C1)NC1CCCCC1 [compound 383] | – | – | 116 nM | 708 nM
8 | CCCN(CCC)C(=O)CON=C1/C=C/CC/C=C/CCOC(=O)c2c(O)cc(O)cc2C1 [compound 389] | – | – | 155 nM | 454 nM
9 | C=C/C1=C\CC/C=C/C(=NOCC(=O)N2CCCCC2)Cc2c(Cl)c(O)cc(O)c2C(=O)OCC1 [compound 397] | – | – | 432 nM | 980 nM
10 | CCCC1C/C=C/CC/C(C)=C/C(=NOCC(=O)N(CC)CC)Cc2cc(O)cc(O)c2C(=O)O1 (stereo not drawn) [compound 362] | – | – | 4660 nM | > 10000 nM
11 | CC1/C=C/CCCOC(=O)c2c(O)cc(O)c(Cl)c2CC(=NOCC(=O)N2CCCCC2)/C=C/C1 (stereo not drawn) [compound 367] | – | – | 1720 nM | > 10000 nM
12 | CC1CN(C(=O)CON=C2/C=C/CC/C=C/CCOC(=O)c3c(O)cc(O)cc3C2)CC(C)O1 (stereo not drawn) [compound 391] | – | – | 337 nM | 2830 nM
13 | CC1/C=C/CCOC(=O)c2c(O)cc(O)c(Cl)c2CC(=NOCC(=O)N2CCCCC2)/C=C/C1 (stereo not drawn) [compound 366] | – | – | 170 nM | 2040 nM
14 | O=C(CON=C1/C=C/CC/C=C/CCOC(=O)c2c(O)cc(O)cc2C1)NCc1ccccc1 [compound 378] | – | – | 57 nM | 929 nM
15 | C[C@@H]1C[C@H]2O[C@@H]2/C=C\C=C\C(=O)Cc2c(Cl)c(O)cc(O)c2C(=O)O1 [radicicol, reference compound] | – | – | – | 450 nM
16 | CCCC1C/C=C/CC/C=C/C(=NOCC(=O)N2CCCCC2)Cc2c(Cl)c(O)cc(O)c2C(=O)O1 (stereo not drawn) [compound 394] | – | – | 96 nM | 1580 nM
17 | CCC1CCCCN1C(=O)CON=C1/C=C/CC/C=C/CCOC(=O)c2c(O)cc(O)cc2C1 (stereo not drawn) [compound 371] | – | – | 243 nM | 629 nM
18 | O=C1OCC/C=C/CC/C=C/C(=NOCC(=O)N2CCC(Cc3ccccc3)CC2)Cc2cc(O)cc(O)c21 [compound 377] | – | – | 5760 nM | > 10000 nM
19 | O=C1OCC/C=C/CC/C=C/C(=NOCC(=O)N2CCOCC2)Cc2cc(O)cc(O)c21 [compound 380] | – | – | 124 nM | 588 nM
20 | O=C1OCC/C=C/CCCCC(=NOCC(=O)N2CCCCC2)Cc2c(Cl)c(O)cc(O)c21 [13g] | 81 nM | – | – | –
21 | CCCC1C/C=C/C(C)C/C=C/C(=NOCC(=O)N2CCCCC2)Cc2c(Cl)c(O)cc(O)c2C(=O)O1 (stereo not drawn) [compound 365] | – | – | 1750 nM | 8970 nM
22 | CCCC1C/C=C/CC/C(C)=C/C(=NOCC(=O)N(CC)CC)Cc2cc(O)cc(O)c2C(=O)O1 (stereo not drawn) [compound 363] | – | – | 900 nM | > 10000 nM
23 | CC1CCCCN1C(=O)CON=C1/C=C/CC/C=C/CCOC(=O)c2c(O)cc(O)cc2C1 (stereo not drawn) [compound 372] | – | – | 886 nM | 3070 nM

Row | Structure (SMILES) | IC50 (HSP90α; read-out: HSP90 affinity) | IC50 (Her-2 (HSP90 client); [1]) | IC50 (HSP90α; HSP90 affinity) | IC50 (Her-2 (HSP90 client); [2])
24 | CCCC1C/C=C/CCCCC(=NOCC(=O)N2CCCCC2)Cc2cc(O)cc(O)c2C(=O)O1 (stereo not drawn) [compound 359] | – | – | 1940 nM | > 8800 nM
25 | CC(C)CN(CC(C)C)C(=O)CON=C1/C=C/CC/C=C/CCOC(=O)c2c(O)cc(O)cc2C1 [compound 390] | – | – | 94 nM | 549 nM
26 | CCCC1C/C=C/CC/C(C)=C/C(=NOCC(=O)N2CCCCC2)Cc2cc(O)cc(O)c2C(=O)O1 (stereo not drawn) [compound 350] | – | – | 196 nM | 805 nM
27 | CC1CCN(C(=O)CON=C2/C=C/CC/C=C/CCOC(=O)c3c(O)cc(O)cc3C2)CC1 [compound 375] | – | – | 70 nM | 201 nM
28 | CC1/C=C/CCOC(=O)c2c(O)cc(O)cc2CC(=NOCC(=O)N2CCCCC2)/C=C/C1 (stereo not drawn) [compound 370] | – | – | 38 nM | 97 nM
29 | CC1CCCC(C)N1C(=O)CON=C1/C=C/CC/C=C/CCOC(=O)c2c(O)cc(O)cc2C1 (stereo not drawn) [compound 374] | – | – | 238 nM | 2030 nM
30 | CCCC1C/C=C/CC/C=C/C(=NOCC(=O)N2CCCCC2)Cc2cc(O)cc(O)c2C(=O)O1 (stereo not drawn) [compound 358] | – | – | 587 nM | > 10000 nM
31 | CCN(CC)C(=O)CON=C1/C=C/CC/C=C/CCOC(=O)c2c(O)cc(O)cc2C1 [compound 357] | – | – | 196 nM | 730 nM
32 | O=C1OCC/C=C/CC/C=C/C(=NOCC(=O)N2CC=CCC2)Cc2cc(O)cc(O)c21 [compound 382] | – | – | 22 nM | 122 nM
33 | O=C1OCC/C=C/CC/C=C/C(=NOCC(=O)N(Cc2ccccc2)Cc2ccccc2)Cc2cc(O)cc(O)c21 [compound 381] | – | – | 2990 nM | > 10000 nM
34 | CCN(CC)C(=O)CON=C1/C=C(\C)CC/C=C/C[C@@H](C)OC(=O)c2c(O)cc(O)cc2C1 [compound 351] | – | – | 204 nM | 900 nM
35 | C[C@@H]1C/C=C/[C@@H](O)C/C=C/C(=N/OCC(=O)N2CCCCC2)Cc2cc(O)cc(O)c2C(=O)O1 [compound 457] | – | – | 12 nM | –
36 | O=C1OC/C=C/CCCCC(=NOCC(=O)N2CCCCC2)Cc2cc(O)cc(O)c21 [compound 353] | 3030 nM | > 10000 nM | – | –
37 | C/C1=C\C(=NOCC(=O)N2CCCCC2)Cc2cc(O)cc(O)c2C(=O)OCC/C=C/CC1 [compound 349] | – | – | 46 nM | 105 nM
38 | O=C1OCCC/C=C/CC/C=C/C(=NOCC(=O)N2CCCCC2)Cc2c(Cl)c(O)cc(O)c21 [compound 396] | 182 nM | 3650 nM | – | –
39 | CC1CCCN(C(=O)CON=C2/C=C/CC/C=C/CCOC(=O)c3c(O)cc(O)cc3C2)C1 (stereo not drawn) [compound 373] | – | – | 59 nM | 89 nM
40 | C/C1=C\C(=NOCC(=O)N2CCCCC2)Cc2cc(O)cc(O)c2C(=O)O[C@H](C)C/C=C/CC1 [compound 336] | < 52 nM | – | – | –
41 | O=C1NCC/C=C/CC/C=C/C(=NOCC(=O)N2CCCCC2)Cc2c(Cl)c(O)cc(O)c21 [compound 395] | – | – | 97 nM | 754 nM
42 | CC1/C=C/CCCOC(=O)c2c(O)cc(O)cc2CC(=NOCC(=O)N2CCCCC2)/C=C/C1 (stereo not drawn) [compound 361] | 543 nM | 2960 nM | – | –
43 | O=C1OCC/C=C/CC/C=C/C(=NOCC(=O)N2CCSCC2)Cc2cc(O)cc(O)c21 [compound 384] | – | – | 70 nM | 512 nM
44 | O=C1OCC/C=C/CC/C=C/C(=NOCC(=O)N2CCCC2)Cc2cc(O)cc(O)c21 [compound 388] | – | – | 219 nM | 509 nM
45 | O=C1OCC/C=C/CCCCC(=NOCC(=O)N2CCCCC2)Cc2c(Cl)c(O)cc(O)c21 [compound 356] | 511 nM | 9480 nM | – | –
46 | O=C1OCC/C=C/CC/C=C/C(=NOCC(=O)N2CCNCC2)Cc2cc(O)cc(O)c21 [compound 393] | – | – | 97 nM | –

— patent US10239856B2, “Synthesis of resorcylic acid lactones useful as therapeutic agents” (UNIVERSITY DE STRASBOURG, priority 2008, dated 2019)
